Experimental data: patent US20120046273A1, “COMPOUNDS AND COMPOSITIONS FOR COGNITION-ENHANCEMENT, METHODS OF MAKING, AND METHODS OF TREATING” (MITHRIDION, INC., priority 2009, published 2012)
Where a name gives a salt, the structure may show the parent alone.

Columns and labels:
anesthetized rats = assay: Salivation on iontophoretic transdermal delivery of agonist and antagonist from one patch; format: in vivo, rat; settings: patch with 1 mg of 82 plus 0.01mg antagonist
Method: Experimental compounds and drug substances were delivered transdermally in rats using iontophoresis as follows. The fur was shaved from the backs of Long Evans Hooded rats weighing 225 to 325 grams, using electric clippers. Experimental compounds and drug substances were formulated at suitable concentrations an aqueous mixture of the following composition:
The polyvinyl alcohol/water was heated to 95 degC. until it became clear, then the other constituents were added and mixed well. The mixture was introduced into suitable molds containing a disc-shaped cavity 2.2 cm diameter and 2.2 mm deep. Molds may be fabricated using two glass sheets separated by a silicone rubber sheet with suitable sized cavities and filling ports cut-outs. The molds were subject to 3 freeze-thaw cycles at −80degC. and 20degC. until a firm cryogel was obtained. The gels were separated from the molds and trimmed into a circular shape. The gel was placed in a silicone rubber casing with one face in contact with a circular silver foil anodic electrode (22 mm dia/250 microns thick), and the assembly was placed on the shaved skin of the rat such that the other face was in contact with the skin on one side of the back of the rat. The rubber casing formed a seal over and around the gel/electrode assembly. […] This was placed on the other side of the shaved back of the rat, the edges of the gel discs being about 20 mm apart at their nearest point. A DC voltage was applied across the two patches from a constant-current DC power supply and the voltage adjusted to obtain the desired current, such that the skin of the animal completed the electrical circuit.
The devices were placed on shaved backs of anesthetized rats and salivation was measured.
(§1) The animals were placed slightly head-down on an inclined, heated ramp. Rectal temperature was monitored using a thermocouple and the temperature of the heating pad was adjusted manually to maintain normal body temperature. Saliva was collected from the mouth by absorption onto pre-weighed slips of filter paper. The filter paper was changed periodically and the amount of saliva was measured by weighing the filter paper slips

[1] = test system: hippocampal inositol phosphate signaling pathway; assay: In vivo tissue inositol phosphate signaling pathway activation, hippocampus; parameters: species or system rat; settings: 1 mg/kg of 82; NMS 0.1 mg/kg
Method: (§2) Experimental compounds or drug substances were administered using standard techniques to Long Evans Hooded rats weighing 225 to 350 grams, and which had been pretreated with a subcutaneous injection of lithium chloride at a suitable dose between 3 and 10 mmoles per kg. At suitable times the animals were briefly anesthetized using 5% isoflurane and euthanized by decapitation. The brains and submaxillary salivary glands were rapidly dissected out, and the hippocampuses were dissected from the brains. The dissected tissues were homogenized in a suitable volume of ice-cold phosphate-buffered saline containing 10 mM lithium chloride, pH7.4, using a tissue homogenizer, and used immediately or frozen in aliquots at −80degC. for future use. The concentration of inositol-1-phosphate was determined in the homogenates using the IPOne TR-FRET assay (CisBio cat no 621PAPEB), following the manufacturer's instruction

[2] = test system: salivary gland inositol phosphate signaling pathway; assay: In vivo tissue inositol phosphate signaling pathway activation, salivary gland; parameters: species or system rat; settings: 1 mg/kg of 82
Method: as §2

anesthetized normal rats = assay: In vivo measurement of salivation; parameters: species or system rat
Method: as §1, with “Suitable doses of test compounds or drug substances were administered using standard techniques to Long Evans Hooded rats weighing 225 to 350 grams, or CD-1 mice weighing 30 to 50 grams, which had been anesthetized using 2-3.5%% of isoflurane in oxygen. The animals” for “The animals”

rat M1 receptors = target: T1, rat M1 receptors (Rattus norvegicus, UniProt P08482); assay: PI turnover (inositol phosphate production) in M1-CHO cells; format: cell-based; settings: for functional selectivity for M1- versus M3-subtype by PI turnover: cell lines expressing individual subtypes of muscarinic receptors; for M1/CHO PI turnover Relative Mean Smax: relative to mean Smax for carbachol (100.0)
T1 construct: host or cells: Chinese Hamster Ovary cells (M1-CHO)
T1 sequence (P08482 1-460): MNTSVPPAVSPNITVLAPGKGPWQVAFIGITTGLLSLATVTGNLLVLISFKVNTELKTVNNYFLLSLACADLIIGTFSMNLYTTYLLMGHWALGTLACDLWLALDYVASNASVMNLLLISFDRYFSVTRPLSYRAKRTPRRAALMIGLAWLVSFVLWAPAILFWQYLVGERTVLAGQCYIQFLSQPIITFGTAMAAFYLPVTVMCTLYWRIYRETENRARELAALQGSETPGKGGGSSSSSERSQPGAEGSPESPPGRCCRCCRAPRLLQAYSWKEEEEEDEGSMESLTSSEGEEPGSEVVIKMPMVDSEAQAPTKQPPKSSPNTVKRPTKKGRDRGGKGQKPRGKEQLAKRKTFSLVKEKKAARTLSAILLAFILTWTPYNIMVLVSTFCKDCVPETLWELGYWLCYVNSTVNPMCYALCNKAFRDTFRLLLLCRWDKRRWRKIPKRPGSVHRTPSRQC
Method: (§3) The medium was changed to 70 μL/well of inositol-free DMEM containing 2 mM glutamine, 10% FBS and 10 μCi/ml of [3H]-inositol (PE:cat # NET114A250UC), incubated overnight as above, then 100 μL of a solution of the test compound in HBSS containing 10 mM LiCl and 20 mM HEPES, pH 7.4 was added, incubation was continued for 60 min under the above conditions, and the test was stopped by removing the test compound and replacing with 100 μL of 50 mM formic acid in water at 4° C.

rats = assay: Salivary flow in rats dosed orally; format: in vivo, rat
rat M3 receptors = target: T2, rat M3 receptors (Rattus norvegicus, UniProt P08483); assay: PI turnover (inositol phosphate production) in M3-CHO cells; format: cell-based; settings: relative to mean Smax for carbachol (100.0)
T2 construct: host or cells: Chinese Hamster Ovary cells (M3-CHO)
T2 sequence (P08483 whole entry): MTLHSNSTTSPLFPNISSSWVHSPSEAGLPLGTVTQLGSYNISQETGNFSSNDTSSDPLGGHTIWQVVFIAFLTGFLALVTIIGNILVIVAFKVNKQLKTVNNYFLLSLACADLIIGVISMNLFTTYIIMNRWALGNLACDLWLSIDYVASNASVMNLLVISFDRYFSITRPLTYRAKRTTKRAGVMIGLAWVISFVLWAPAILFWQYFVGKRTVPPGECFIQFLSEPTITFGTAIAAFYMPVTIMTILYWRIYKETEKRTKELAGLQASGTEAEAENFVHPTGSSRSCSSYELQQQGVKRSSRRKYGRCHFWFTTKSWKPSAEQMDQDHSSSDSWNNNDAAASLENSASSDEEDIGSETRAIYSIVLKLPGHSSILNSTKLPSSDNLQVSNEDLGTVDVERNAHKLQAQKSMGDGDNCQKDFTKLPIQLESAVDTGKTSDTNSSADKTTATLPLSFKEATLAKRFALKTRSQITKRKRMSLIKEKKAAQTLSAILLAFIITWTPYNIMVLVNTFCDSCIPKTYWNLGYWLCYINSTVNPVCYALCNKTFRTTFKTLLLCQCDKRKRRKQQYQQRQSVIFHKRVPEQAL
Method: as §3

[3] = Metabolites in serum and urine of dosed rats (LC-MS); format: in vivo; settings: rat serum/plasma or urine, oral dosing; hydrochloride
Method: Oxadiazoles disclosed herein as well as other oxadiazoles were investigated to determine the formation of metabolites. Animals were dosed, blood taken, serum prepared, serum proteins precipitated and ultrafiltrates prepared as described in Example 6. In separate experiments, urine was collected from rats for 16-24 hours after dosing, using standard metabolic cages. The urine container and collected urine were maintained at 4° C. Urine was lyophilized, taken back into water. The ultrafiltrate was prepared by adding formic acid to a final concentration of 1% to the urine samples, then filtered through a 0.2 um nylon membrane. The ultrafiltrate was subjected to LC-MS analysis. Instead of measuring the product ions in Q3, manual Q1 scans of the liquid chromatograph were undertaken, seeking parent ions of potential metabolites of the compounds. The criteria for identifying metabolites were as follows: (1) the ion should be present in the sera or urines of dosed rats, but not in sera or urines from non-dosed rats (2) the ion should be identifiable as a metabolic derivative of the dosed compound (e.g. loss of a functional chemical moiety, addition of a hydroxyl group or a glucuronic acid moiety, etc). Metabolites were determined not to be present if no compound meeting the above criteria could be detected in serum or urine.

[4] = Brain concentrations in rats after oral gavage; format: in vivo, rat; settings: for Brain Cmax (10 mg/kg po) MCD-386 = 1.00: rat, relative to MCD-386; for penetration into the brain: rats after oral dosing
Method: Long-Evans Hooded rats (Charles River: male, 250-350 g) were dosed with solutions of test compounds in PBS by oral gavage. At the desired time after dosing, the animals were anesthetized with isoflurane, and then euthanized by cervical dislocation. Blood was obtained by cardiac puncture, transferred to a 1.5 mL microcentrifuge tube containing 15U Heparin, and the plasma recovered after centrifugation. Brains were dissected, weighed, immediately chilled to 4° C., and homogenized using a PowerGen 125 homogenizer in five volumes of ice-cold 2% formic acid. Proteins were precipitated from plasma and brain homogenate with two and five volumes respectively of ice-cold 2% formic acid and clarified by centrifugation. The supernatant was ultra-filtered by centrifugation through a 3K MWCO spin column (Pall Life Sciences), following the manufacturer's instructions. The concentration of compound in the ultra-filtrate was subjected to reverse-phase liquid chromatography using a 150×2.1 mm Agilent C8 reverse-phase column on a Shimadzu Prominence LC, eluting the compounds with a gradient of 2% to 50% of acetonitrile+0.1% formic acid for compound MI-50,382, or an isocratic flow of 2% acetonitrile+0.1% formic acid for the rest of the compounds listed. The concentration of the compound in the column effluent was measured using an Applied Biosystems API-3200 triple quadrupole mass spectrometer equipped with an electrospray sample injection system. The counts of the characteristic parent and product ions of each test compound were converted to concentration units by comparison with a standard calibration curve.

[5] = rat, in vivo, po

Structure (SMILES) | functional selectivity for M1- versus M3-subtype by PI turnover (rat M1 receptors) | M1/CHO PI turnover Relative Mean Smax (rat M1 receptors) | M3/CHO PI turnover Relative Mean Smax (rat M3 receptors) | Presence of metabolites (10 mg/kg po) [3] | Brain Cmax (10 mg/kg po) MCD-386 = 1.00 [4] | penetration into the brain [4] | other results
C[N+]1(C)[C@@H]2C[C@@H](OC(=O)[C@H](CO)c3ccccc3)C[C@H]1[C@@H]1O[C@@H]12 [NMS, N-methylscopolamine] | – | – | – | – | – | – | reduction of salivation caused by transdermal iontophoretic delivery of 82 (anesthetized rats): greatly reduced; inhibition of increase in inositol phosphate in the hippocampus caused by 82 [1]: does not inhibit; block of increase in salivary gland inositol phosphate caused by 82 ([2]; NMS 0.003 mg/kg): some breakthrough activation; block of increase in salivary gland inositol phosphate caused by 82 ([2]; NMS 0.03 mg/kg to 0.01 mg/kg): nearly as effective as 0.1 mg/kg; block of increase in salivary gland inositol phosphate caused by 82 ([2]; antagonist 0.1 mg/kg NMS): completely block; decrease in salivation caused by 82 (anesthetized normal rats; 0.3 mg/kg of 82): dose-dependent decrease in salivation; reduction in salivation caused by MCD-386 (anesthetized normal rats; 1 mg/kg dose of MCD-386): dose-dependent reduction
Cl.[2H]C([2H])([2H])c1noc(C2CN=CNC2)n1 (stereo not drawn) [Compound 74, 3-(d3-methyl)-5-(1,4,5,6-tetrahydropyrimidin-5-yl)-1,2,4-oxadiazole hydrochloride] | not selective for the M1 subtype | 98.6 | – | – | – | – | agonist efficacy at M1- and M3-subtype muscarinic receptors by PI turnover (rat M1 receptors): near full-agonist; salivary flow (rats): copious salivary flow
[2H]C([2H])([2H])Cc1noc(C2CN=CNC2)n1 (stereo not drawn) [Compound 78, 3-(2,2,2-d3-Ethyl)-5-(1,4,5,6-tetrahydropyrimidin-5-yl)-1,2,4-oxadiazole hydrochloride] | – | 48.9 | 28.8 | – | – | – | –
[2H]C([2H])([2H])C([2H])([2H])c1noc(C2CN=CNC2)n1 (stereo not drawn) [Compound 70, 3-(1,1,2,2,2-d5-ethyl)-5-(1,4,5,6-tetrahydropyrimidin-5-yl)-1,2,4-oxadiazole hydrochloride] | M1-subtype functionally selective muscarinic agonists | 67.7 | 16.5 | No metabolites were identified and No | 0.61 | penetrated into the brain | –
CNC(=C[N+](=O)[O-])NCCSCc1ccc(CN(C)C)o1 [Ranitidine, reference compound] | – | – | – | – | – | – | PAMPA (? × 106): 0.26 ? × 106; Brain/plasma ratio [5]: Very low
[2H]C([2H])(C)c1noc(C2CN=CNC2)n1 (stereo not drawn) [Compound 66, 3-(2,2-d2-Ethyl)-5-(1,4,5,6-tetrahydropyrimidin-5-yl)-1,2,4-oxadiazole hydrochloride] | M1-subtype functionally selective muscarinic agonists | 84.0 | 15.1 | No metabolites were identified and No | 0.82 | penetrated into the brain | –
